{"source": "patent US20050271673A1", "about": "“Trifunctional reagent for conjugation to a biomolecule” (priority 1998, published 2005)", "origin": "cited, not measured here", "key": {"avidin": {"target": "avidin (Gallus gallus, UniProt P02701)", "sequence (P02701 25-152, species assumed)": "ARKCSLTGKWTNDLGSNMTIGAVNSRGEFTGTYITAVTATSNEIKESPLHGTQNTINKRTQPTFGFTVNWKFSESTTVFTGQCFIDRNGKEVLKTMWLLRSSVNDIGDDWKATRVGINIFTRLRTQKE", "details": "association constant; Green 1990, 1975"}, "streptavidin": {"target": "streptavidin (Streptomyces avidinii, UniProt P22629)", "sequence (P22629 25-183, species assumed)": "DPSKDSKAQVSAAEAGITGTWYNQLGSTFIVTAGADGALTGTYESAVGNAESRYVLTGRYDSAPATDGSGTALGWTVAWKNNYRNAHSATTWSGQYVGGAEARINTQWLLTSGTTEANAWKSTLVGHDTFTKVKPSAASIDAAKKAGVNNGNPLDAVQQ", "details": "association constant; Green 1990, 1975"}}}
{"smiles": "O=C(O)CCCC[C@@H]1SC[C@@H]2NC(=O)N[C@@H]21", "note": "[biotin]", "values": [{"measurement": "K (binding constant of biotin with avidin)", "setting": "avidin", "result": "1013 to 1015", "unit": "M⁻¹"}, {"measurement": "K (binding constant of biotin with streptavidin)", "setting": "streptavidin", "result": "1013 to 1015", "unit": "M⁻¹"}]}
